Measured values: ChEMBL document CHEMBL5252626, “Design and synthesis of novel GluN2A NMDAR positive allosteric modulators via scaffold hopping strategy as anti-stroke therapeutic agents” (Bioorg Med Chem, 2023)
Values after ≈ are worked out from the molar mass of the structure shown. Active and inactive are the calls of the source. The calls are words filed in the database; no cut-off is given here.

Columns and labels:
[1] = system: PC-12; test: Neuroprotective activity against glutamate-induced neurotoxicity in rat PC-12 cells assessed as survival rate at 0.1 uM by WST-8 assay (reference value: 40.8+/-2.0%); type: functional
[2] = system: PC-12; test: Neuroprotective activity against glutamate-induced neurotoxicity in rat PC-12 cells assessed as survival rate at 1 uM by WST-8 assay; type: functional
[3] = system: PC-12; test: Neuroprotective activity against glutamate-induced neurotoxicity in rat PC-12 cells assessed as survival rate at 10 uM by WST-8 assay; type: functional
[4] = system: PC-12; test: Cytotoxicity in rat PC-12 cells assessed as reduction in cell viability at 10 uM incubated for 24 hrs by CCK-8 method; type: toxicity, cell-based; settings: pc-12, 24 h
[5] = Solubility of the compound in water by UV spectophotometry analysis; type: physicochemical
[6] = molecular target: T1, Glutamate NMDA receptor; GRIN1/GRIN2A (Homo sapiens) (UniProt Q05586+Q12879); test: Positive allosteric modulation of GluN1/GluN2A receptor (unknown origin) stably expressed in HEK293 cells assessed as glutamate/glycine induced increase in intracellular calcium level at 10 uM incubated for 30 mins followed by addition of glutamate/glycine by Ca2+ influx assay; type: cell-based; settings: filed as positive allosteric modulator
[7] = system: Mus musculus; test: Neuroprotective activity in middle cerebral artery occlusion-induced C57BL/6 mouse model assessed as reduction in infarct volume at 2 mg/kg, sc incubated with compound for 2 hrs after reperfusion by TTC staining based assay relative to control; type: functional; parameters: scale not given: the % may be the effect or the level left
[8] = system: Mus musculus; test: Neuroprotective activity in middle cerebral artery occlusion-induced C57BL/6 mouse model assessed as reduction in infarct volume at 2 mg/kg, sc incubated with compound for 2 hrs after reperfusion by TTC staining based assay; type: functional
[9] = molecular target: T1, Glutamate NMDA receptor; GRIN1/GRIN2A (Homo sapiens); test: Positive allosteric modulation of GluN1/GluN2A receptor (unknown origin) stably expressed in HEK293 cells assessed as ratio of Fmax/F0 fluorescence curve value; type: cell-based; settings: filed as positive allosteric modulator
[10] = molecular target: Glutamate NMDA receptor; GRIN1/GRIN2B (Homo sapiens) (UniProt Q05586+Q13224); test: Positive allosteric modulation of GluN1/GluN2B receptor (unknown origin) stably expressed in HEK293 cells assessed as glutamate/glycine induced increase in intracellular calcium level at 10 uM incubated for 30 mins followed by addition of glutamate/glycine by Ca2+ influx assay; type: cell-based
[11] = filed as positive allosteric modulator

In the case of `COc1ccc(NC(=O)c2c[nH]c3c(Cl)cccc3c2=O)cc1`, the Activity [1] is reported as 33.6%, the Activity [2] is reported as 35.5% and the Activity [3] is reported as 54.3%. For the same compound, the Activity [4] was 79.9%.
`N#Cc1ccc(NC(=O)c2c[nH]c3ccccc3c2=O)cc1` gave an Activity [1] of 34.7%, an Activity [2] of 39.7% and an Activity [3] of 40.7%. For the same compound, the Activity [4] was 71.9%.
`CNC(=O)c1ccccc1NC(=O)c1c[nH]c2c(Cl)cccc2c1=O` gave an Activity [1] of 47.6%, an Activity [2] of 47.3% and an Activity [3] of 42.6%. The Activity [4] was 93.8%.
Compound `COc1cccc2c1C=C(C(=O)Nc1ccc(NC(C)=O)cc1)CO2` has an Activity [1] of 59.2%, an Activity [2] of 76.9% and an Activity [3] of 56.9%. For the same compound, the Activity [4] was 85.5%.
Compound `COc1ccc(NC(=O)C2=Cc3ccccc3OC2)cc1` has an Activity [1] of 43.3%, an Activity [2] of 35% and an Activity [3] of 61.5%. For the same compound, the Activity [4] was 100.3%.
For `CC(C(O)c1ccc(O)cc1)N1CCC(Cc2ccccc2)CC1` (stereo not given) [IFENPRODIL], the Activity [1] was 41.4%, the Activity [2] was 46.4% and the Activity [3] was 40.3%. It also gave an Activity [4] of 82.3%.
With `O=C(Nc1cc(Cl)ccc1O)C1=Cc2ccccc2OC1` the Activity [1] was 67.6%, the Activity [2] was 57.2% and the Activity [3] was 52.5%. It also gave an Activity [4] of 92.2%.
`COc1ccccc1NC(=O)c1c[nH]c2ccccc2c1=O` gave an Activity [1] of 36.6%, an Activity [2] of 60.1% and an Activity [3] of 31.2%. It also gave an Activity [4] of 63%.
In the case of `CC(=O)Nc1ccc(NC(=O)c2c[nH]c3ccccc3c2=O)cc1`, the Activity [1] is reported as 57.2%, the Activity [2] is reported as 66.6% and the Activity [3] is reported as 65.4%. For the same compound, the Activity [4] was 101.5% and the solubility [5] was less than 6.2 µM.
Work on `COc1cccc2c1C=C(C(=O)Nc1cc(Cl)ccc1O)CO2` yielded an Activity [1] of 51.2%, an Activity [2] of 58.5% and an Activity [3] of 64.8%. For the same compound, the Activity [4] was 95%.
Work on `COc1cccc2c(=O)c(C(=O)Nc3cc(O)ccc3C)c[nH]c12` yielded an Activity [1] of 34.5%, an Activity [2] of 46.4% and an Activity [3] of 56.1%. For the same compound, the Activity [4] was 85.8%.
In the case of `COc1cccc(NC(=O)c2c[nH]c3ccccc3c2=O)c1`, the Activity [1] is reported as 65.5%, the Activity [2] is reported as 59.5% and the Activity [3] is reported as 44.5%. The Activity [4] was 100.8% and the solubility [5] was 454 µM (≈ 133 µg/mL).
For `O=C(NCc1cccc(Cl)c1)c1cc2c(Br)cccc2oc1=O`, the Activity [1] was 45.4%, the Activity [2] was 45.2% and the Activity [3] was 43.1%. It also gave an Activity [4] of 97%.
Compound `COC(=O)c1ccc(NC(=O)C2=Cc3ccccc3OC2)cc1` has an Activity [1] of 58.4%, an Activity [2] of 62.6% and an Activity [3] of 55.5%. It also gave an Activity [4] of 91.4% and a solubility [5] of 202 µM (≈ 62.5 µg/mL).
For `CNC(=O)c1ccccc1NC(=O)C1=Cc2c(Br)cccc2OC1`, the Activity [1] was 48.1%, the Activity [2] was 46.1% and the Activity [3] was 47.9%. For the same compound, the Activity [4] was 89.2%.
`COc1cccc2c1OCC(C(=O)Nc1cc(Cl)ccc1O)=C2` gave an Activity [1] of 61.5%, an Activity [2] of 58.6% and an Activity [3] of 71.3%. For the same compound, the Activity [4] was 92.6%.
Work on `COc1cccc(NC(=O)C2=Cc3ccccc3OC2)c1` yielded an Activity [1] of 34.2%, an Activity [2] of 35.3% and an Activity [3] of 62.6%. For the same compound, the Activity [4] was 79.1%.
For `COc1cccc2c1OCC(C(=O)Nc1ccc(Br)cn1)=C2`, the Activity [1] was 65.3%, the Activity [2] was 58.2% and the Activity [3] was 43.7%. It also gave an Activity [4] of 75.3%.
`CNC(=O)c1ccccc1NC(=O)c1c[nH]c2ccccc2c1=O` gave an Activity [1] of 56.4%, an Activity [2] of 55.9% and an Activity [3] of 53.7%. The Activity [4] was 90.6% and the solubility [5] was 62.3 µM (≈ 20 µg/mL).
For `CCOc1cc(Cl)c(Cl)c(/C=N/NC(=O)c2ccccc2Br)c1O`, the Activity [6] was “Active”, the Activity [7] was 31.33% and the Activity [8] was 149 mm. The Activity [1] was 44.3%, the Activity [2] was 53.1% and the Activity [3] was 8.6%. The Activity [4] was 40.2%, the Ratio [9] was 152 and the Activity [10, 11] was “Active”.
With `O=C(NCc1ccc(Br)cc1)c1cc2c(Br)cccc2oc1=O` the Activity [1] was 40.87%, the Activity [2] was 40.76% and the Activity [3] was 39.9%. It also gave an Activity [4] of 94.97%.
With `O=C(Nc1cccnc1)c1c[nH]c2ccccc2c1=O` the Activity [1] was 42.5%, the Activity [2] was 38.5% and the Activity [3] was 39.3%. The Activity [4] was 80.9%.
For `COc1ccccc1NC(=O)C1=Cc2ccccc2OC1`, the Activity [1] was 41.2%, the Activity [2] was 36.9% and the Activity [3] was 76.9%. It also gave an Activity [4] of 74.1%.
In the case of `CC(=O)c1ccc(NC(=O)c2c[nH]c3ccccc3c2=O)cc1`, the Activity [1] is reported as 30.8%, the Activity [2] is reported as 30.8% and the Activity [3] is reported as 40.2%. For the same compound, the Activity [4] was 74.6%.
Compound `COc1ccc(NC(=O)c2c[nH]c3ccccc3c2=O)c(C)c1` has an Activity [1] of 33.6%, an Activity [2] of 34.2% and an Activity [3] of 44%. It also gave an Activity [4] of 62%.
Compound `Cc1ccc(O)cc1NC(=O)c1c[nH]c2c(Cl)cccc2c1=O` has an Activity [1] of 53.6%, an Activity [2] of 44.7% and an Activity [3] of 41.6%. For the same compound, the Activity [4] was 92.7% and the solubility [5] was 140 µM (≈ 46 µg/mL).
Compound `COc1ccccc1NC(=O)C1=Cc2c(OC)cccc2OC1` has an Activity [1] of 58.2%, an Activity [2] of 56.1% and an Activity [3] of 50.9%. The Activity [4] was 81.8%.
In the case of `COC(=O)c1ccc(NC(=O)C2=Cc3cccc(OC)c3OC2)cc1`, the Activity [1] is reported as 58.7%, the Activity [2] is reported as 57.5% and the Activity [3] is reported as 41.2%. For the same compound, the Activity [4] was 73.3%.
`CC(=O)Nc1ccc(NC(=O)C2=Cc3c(Br)cccc3OC2)cc1` showed an Activity [1] of 46.7%, an Activity [2] of 46.9% and an Activity [3] of 41.7%. It also gave an Activity [4] of 92.9%.
In the case of `COc1ccc(NC(=O)c2c[nH]c3ccccc3c2=O)cc1`, the Activity [1] is reported as 71%, the Activity [2] is reported as 69.8% and the Activity [3] is reported as 53.1%. It also gave an Activity [4] of 81.1%.
Compound `COc1cccc2c1OCC(C(=O)Nc1ccc(NC(C)=O)cc1)=C2` has an Activity [1] of 53.5%, an Activity [2] of 54% and an Activity [3] of 41.2%. For the same compound, the Activity [4] was 67.3%.
In the case of `CCOc1ccc(NC(=O)c2cnc3ccccc3c2O)cc1`, the Activity [1] is reported as 36.4%, the Activity [2] is reported as 28.8% and the Activity [3] is reported as 52.7%. The Activity [4] was 93.2%.
For `CC(=O)Nc1ccc(NC(=O)c2c[nH]c3c(Cl)cccc3c2=O)cc1`, the Activity [6] was “Active”, the Activity [8] was 96 mm and the Activity [1] was 61.5%. It also gave an Activity [2] of 62%, an Activity [3] of 62.7% and an Activity [4] of 91.9%. The solubility [5] was 34.7 µM (≈ 12.3 µg/mL) and the Activity [10, 11] was “Active”.
`COc1cccc(OC)c1NC(=O)C1=Cc2c(Br)cccc2OC1` showed an Activity [1] of 45.2%, an Activity [2] of 46.4% and an Activity [3] of 52.8%. The Activity [4] was 92.9%.
For `CC(=O)Nc1ccc(NC(=O)C2=Cc3ccccc3OC2)cc1`, the Activity [8] was 93 mm, the Activity [1] was 62.1% and the Activity [2] was 54.1%. It also gave an Activity [3] of 57.3%, an Activity [4] of 84.7% and a solubility [5] of 364 µM (≈ 112 µg/mL).
With `COc1ccccc1NC(=O)c1c[nH]c2c(Cl)cccc2c1=O` the Activity [6] was “Active”, the Activity [7] was 49% and the Activity [1] was 64.3%. The Activity [2] was 64.9%, the Activity [3] was 52.8% and the Activity [4] was 84.4%. For the same compound, the solubility [5] was 13.7 µM (≈ 4.5 µg/mL) and the Activity [10, 11] was “Active”.
`COC(=O)c1ccc(NC(=O)c2c[nH]c3ccccc3c2=O)cc1` showed an Activity [1] of 61.6%, an Activity [2] of 61.3% and an Activity [3] of 49.7%. For the same compound, the Activity [4] was 73.6%.
For `Cc1ccc(O)cc1NC(=O)c1c[nH]c2ccccc2c1=O`, the Activity [6] was “Active”, the Activity [7] was 45% and the Activity [1] was 59.5%. It also gave an Activity [2] of 52%, an Activity [3] of 50.2% and an Activity [4] of 63.6%. For the same compound, the solubility [5] was 29.6 µM (≈ 8.71 µg/mL), the Ratio [9] was 154 and the Activity [10] was “inactive”.
Compound `COc1ccccc1CNC(=O)c1c[nH]c2ccccc2c1=O` has an Activity [1] of 50.3%, an Activity [2] of 44.4% and an Activity [3] of 17.7%. The Activity [4] was 28.8%.
`COc1ccccc1CNC(=O)c1c[nH]c2c(Cl)cccc2c1=O` gave an Activity [1] of 44.4%, an Activity [2] of 41.2% and an Activity [3] of 23.2%. For the same compound, the Activity [4] was 66.1%.
